Data on 13 compounds can be found in ChEMBL document CHEMBL5131476, “Development of dihydropyrrolopyridinone-based PKN2/PRK2 chemical tools to enable drug discovery” (Bioorg Med Chem Lett, 2022).

Where only a bound is given, the exact number is not on record here.

As usually defined, the Ki is the equilibrium dissociation constant of an inhibitor or competing ligand from its target. Broadly, the IC50 is the midpoint of a concentration-inhibition curve.

Data set [1] deals with T1, Serine/threonine-protein kinase N1 (Homo sapiens, UniProt Q16512). Kind of data set: Inhibition of PKN1 (unknown origin) by TR-FRET-based tracer displacement assay dependent Cheng-Prusoff equation analysis. A general note: Time-resolved FRET reads energy transfer from a long-lived donor to a nearby acceptor.
T1 sequence (Q16512 whole entry): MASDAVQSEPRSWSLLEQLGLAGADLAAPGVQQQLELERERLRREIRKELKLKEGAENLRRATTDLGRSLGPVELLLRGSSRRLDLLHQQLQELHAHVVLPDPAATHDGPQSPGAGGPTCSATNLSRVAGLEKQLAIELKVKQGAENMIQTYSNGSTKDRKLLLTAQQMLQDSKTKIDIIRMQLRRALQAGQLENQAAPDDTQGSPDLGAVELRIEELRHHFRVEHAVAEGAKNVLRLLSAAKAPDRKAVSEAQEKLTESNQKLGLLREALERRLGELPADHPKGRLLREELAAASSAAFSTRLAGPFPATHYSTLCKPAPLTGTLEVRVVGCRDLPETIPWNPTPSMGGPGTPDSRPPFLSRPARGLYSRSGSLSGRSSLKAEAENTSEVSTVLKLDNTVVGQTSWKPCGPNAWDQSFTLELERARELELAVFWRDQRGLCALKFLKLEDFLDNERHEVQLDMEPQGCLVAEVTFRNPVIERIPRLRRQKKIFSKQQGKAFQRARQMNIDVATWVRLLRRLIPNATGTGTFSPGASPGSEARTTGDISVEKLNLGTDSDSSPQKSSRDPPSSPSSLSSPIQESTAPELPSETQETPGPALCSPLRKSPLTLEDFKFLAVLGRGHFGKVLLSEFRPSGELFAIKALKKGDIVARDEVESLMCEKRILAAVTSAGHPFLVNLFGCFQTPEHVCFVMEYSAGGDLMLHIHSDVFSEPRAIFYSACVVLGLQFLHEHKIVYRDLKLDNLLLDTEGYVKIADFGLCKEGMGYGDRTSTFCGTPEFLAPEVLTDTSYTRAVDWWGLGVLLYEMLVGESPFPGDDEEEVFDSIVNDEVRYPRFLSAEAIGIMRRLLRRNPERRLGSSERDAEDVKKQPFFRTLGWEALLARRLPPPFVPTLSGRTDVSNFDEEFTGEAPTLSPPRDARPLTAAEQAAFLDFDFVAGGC
The target of data set [2] is T1, Serine/threonine-protein kinase N1. Kind of data set: Inhibition of PKN1 (unknown origin) by TR-FRET-based tracer displacement assay.
A short description of data set [3]: Toxicity in human HeLa cells assessed as cell viability at 50 uM incubated for 24 hrs by MTT assay. It counts as cell-based. To be noted: read-out: Activity. Background: Formazan colour is commonly taken as a measure of viable cells.
Data set [4] concerns the target T2, Serine/threonine-protein kinase N2 (Homo sapiens, UniProt Q16513). The data set is described as follows: Inhibition of PKN2 (unknown origin) by TR-FRET-based tracer displacement assay dependent Cheng-Prusoff equation analysis.
Data set [5] has as its target T2, Serine/threonine-protein kinase N2. The data set is described as follows: Inhibition of PKN2 (unknown origin) by TR-FRET-based tracer displacement assay.
The target is the same in data set [6]. Kind of data set: Inhibition of NanoLuc-PKN2 (ser646-cys984)(unknown origin) expressed in HEK293 cells by cell-based NanoBRET target engagement assay.
For data set [7] the target is unchanged. Kind of data set: Inhibition of NanoLuc-PKN2 (ser646-cys984)(unknown origin) expressed in HEK293 cells in […] by cell-based NanoBRET target engagement assay. For orientation: BRET reads energy transfer from a luciferase to a nearby fluorophore.

T2 sequence (Q16513 whole entry): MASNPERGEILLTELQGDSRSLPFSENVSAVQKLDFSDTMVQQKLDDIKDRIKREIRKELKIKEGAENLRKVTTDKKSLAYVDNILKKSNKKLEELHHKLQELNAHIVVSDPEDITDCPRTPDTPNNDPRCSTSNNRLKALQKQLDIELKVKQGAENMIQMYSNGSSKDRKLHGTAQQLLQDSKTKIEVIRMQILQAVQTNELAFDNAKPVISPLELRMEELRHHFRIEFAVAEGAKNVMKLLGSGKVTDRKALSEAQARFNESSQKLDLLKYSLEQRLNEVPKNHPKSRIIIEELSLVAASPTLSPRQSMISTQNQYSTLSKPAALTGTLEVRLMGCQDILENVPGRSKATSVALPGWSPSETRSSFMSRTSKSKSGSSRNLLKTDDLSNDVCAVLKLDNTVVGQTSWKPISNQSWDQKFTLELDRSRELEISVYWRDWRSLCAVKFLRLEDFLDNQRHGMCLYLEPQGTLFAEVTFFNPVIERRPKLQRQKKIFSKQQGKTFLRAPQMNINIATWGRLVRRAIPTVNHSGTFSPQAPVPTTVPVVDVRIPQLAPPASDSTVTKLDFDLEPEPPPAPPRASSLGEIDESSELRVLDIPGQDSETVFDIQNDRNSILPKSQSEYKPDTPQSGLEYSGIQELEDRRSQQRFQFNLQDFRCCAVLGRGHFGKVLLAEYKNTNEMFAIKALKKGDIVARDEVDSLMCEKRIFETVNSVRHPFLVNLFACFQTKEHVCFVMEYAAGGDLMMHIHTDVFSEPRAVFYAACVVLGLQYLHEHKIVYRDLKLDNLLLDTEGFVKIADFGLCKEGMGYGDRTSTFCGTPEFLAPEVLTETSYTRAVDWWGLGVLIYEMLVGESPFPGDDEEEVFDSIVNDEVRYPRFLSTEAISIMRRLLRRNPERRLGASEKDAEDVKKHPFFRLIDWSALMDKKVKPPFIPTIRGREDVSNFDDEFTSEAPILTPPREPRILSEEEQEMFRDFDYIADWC

As to `O=C1NCCc2[nH]c(-c3ccncc3)cc21`, affinity in data set [1] was put at a Ki of 150 nM. This compound also displayed an IC50 in data set [2] of 300 nM. Moreover, the viability at 24 h, 50 µM in data set [3] is at least 70%.
In the case of `CCn1c(-c2ccncc2)cc2c1CCNC2=O`, the values for the Ki in data set [4] and in data set [1] were 8 nM and 108 nM, respectively. The IC50 was 16 nM in data set [5], 210 nM in data set [2], 2100 nM in data set [6] and 1100 nM in data set [7]. Moreover, the viability at 24 h, 50 µM in data set [3] is at least 70%.
In the case of `O=C1NCCc2c1cc(-c1ccncc1)n2CCO`, the Ki was 15 nM in data set [4] and 220 nM in data set [1]. Moreover, the IC50 in data set [5] is 30 nM; in data set [2] it was 440 nM; in data set [6] it was 11000 nM.
In the case of `Cn1c(-c2ccncc2)cc2c1CCNC2=O`, the values for the Ki in data set [4] and in data set [1] were 130 nM and 2200 nM, respectively. Moreover, the IC50 was determined as 260 nM in data set [5] and 4500 nM in data set [2].
In the case of `O=C1NCCc2[nH]c(-c3cccnc3)cc21`, affinity in data set [4] was put at a Ki of 1600 nM. For the same compound, the figures for the IC50 in data set [5] and in data set [2] were 3200 nM and above 5000 nM, respectively.
As to `O=C1NCCc2c1cc(-c1ccncc1)n2Cc1ccccc1`, the Ki in data set [4] is 320 nM; in data set [1], 1500 nM. For the same compound, the 50% inhibitory concentration (IC50) in data set [5] came out at 640 nM; in data set [2] it was 3000 nM.
Regarding `O=C1NC(c2ccccc2)Cc2[nH]c(-c3ccncc3)cc21` (stereo not drawn), the Ki in data set [4] was found to be 25 nM; in data set [1], 260 nM. Further, the figures for the IC50 in data set [5] and in data set [2] were 50 nM and 520 nM, respectively.
In turn, `CCCN1CCc2c(cc(-c3ccncc3)n2CC)C1=O` came in with a Ki in data set [4] of 1300 nM. For the same compound, the figures for the IC50 in data set [5] and in data set [2] were 2600 nM and above 5000 nM, respectively.
For the compound `CCn1c(-c2ccncc2)cc2c1CCN(C)C2=O`, in data set [4], the affinity corresponds to a Ki of 170 nM. The IC50 in data set [5] is 350 nM; in data set [2], above 5000 nM.
For the compound `CCCn1c(-c2ccncc2)cc2c1CCNC2=O`, the Ki was found to be 7 nM in data set [4] and 60 nM in data set [1]. In addition, the IC50 in data set [5] worked out at 15 nM; in data set [2] it was 120 nM; in data set [6], 2800 nM. For the same compound, the viability at 24 h, 50 µM in data set [3] is at least 70%.
For the compound `c1cc(-c2cc3c([nH]2)CCNC3)ccn1`, the affinity in data set [4], expressed as Ki, was 1100 nM. Moreover, the IC50 in data set [5] is 2200 nM; in data set [2], above 5000 nM.
Take `CC(C)n1c(-c2ccncc2)cc2c1CCNC2=O`: the Ki was found to be 70 nM in data set [4] and 920 nM in data set [1]. Moreover, the values for the IC50 in data set [5] and in data set [2] were 140 nM and 1840 nM, respectively.
With `O=C1CCCc2[nH]c(-c3ccncc3)cc21`, the inhibitory constant (Ki) in data set [4] turned out to be 30 nM; in data set [1], 650 nM. Also, the results for the IC50 in data set [5] and in data set [2] were 60 nM and 1300 nM, respectively.
